In patent US20250296939A1, “BENZOTHIOPHENE COMPOUND” (Kyoto Pharmaceutical Industries, Ltd., priority 2022, published 2025):

What was measured:
[1] = molecular target: GST-fused human Keap1 (amino acid residues: 325-642) protein (Homo sapiens (Human), UniProt Q14145); assay: FP assay (in vitro): inhibition of binding between Nrf2 and Keap1 by fluorescence polarization; details: 20 nM GST-fused human Keap1, 10 nM FITC-labeled Nrf2 peptide, 2 hr at room temperature
Description: Experimental Example 1: FP Assay (In Vitro)
The inhibitory activity of test compounds on the binding between Nrf2 and Keap1 was determined by fluorescence polarization. A solution of 50 mM Tris-HCl pH.8.0 (NACALAI, REF: 06938-15), and 5 mM DTT (SIGMA-ALDRICH, REF: 646563-10X.5 mL) was used as a buffer solution. 8 μL of a buffer solution containing 40 nM GST-fused human Keap1 (amino acid residues: 325-642) protein (Protein tech, REF: Ag0779) was taken in a black 384-well plate (final concentration 20 nM), and 4 μL of the test compound solution prepared to each concentration in buffer solution was added thereto. A well containing a portion of the buffer solution without Keap1 was placed as a negative control. A well with no compound was used as a positive control. 40 nM of FITC-labeled Nrf2 peptide (FITC-X-LQLDEETGEFLPIQ (X=ε-Acp), Peptide Institute Inc.) was added thereto (10 nM final concentration). The wells were incubated at room temperature for 2 hr, and then fluorescence polarization was measured with a plate reader SPECTRAMAX Paradigm (Molecular devices) at excitation wavelength of 485 nm and fluorescence wavelength of 535 nm. The fluorescence polarization of the negative control was set to 100% inhibition and that of the positive control to 0% inhibition, and the inhibitory rate upon addition of the test compound was calculated using the following formula.

[2] = test system: NQO1 activity in Hepa1c1c7 cells; assay: NAD(P)H: quinone oxidoreductase-1 (NQO1) enzyme induction assay (in vitro); format: cell-based, mouse; details: Mus musculus, Hepa-1c1c7, NQO1 activity upon addition of 400 nM of test compound, about 48 hr, ratio from the base without the compound
Description: Experimental Example 2: NAD(P)H: Quinone Oxidoreductase-1 (NQO1) Enzyme Induction Assay (In Vitro)
The NQO1 assay was performed based on a previous report (Methods in Enzymology 2004; 382: 243-258). Hepa1c1c7 cells (mouse hepatocyte cell line, ATCC, cat. no. CRL-2026) were cultured in D-MEM medium containing 10% FBS and 1% penicillin/streptomycin (5% CO2, 37° C.), and seeded into 96-well plates (Corning REF. 353072) at 1×10^4 cells/well. A portion of the wells were prepared with medium only for background measurement without seeding cells. The next day, 400 nM of the test compound (0.004% of the final concentration in DMSO) dissolved in DMSO was added thereto, and the wells were incubated for about 48 hr. A well without adding the test compound was prepared for base activity assay in part.
Cell lysate (solution containing 0.8% digitonin, 2 mM EDTA), reaction solution (solution containing 25 mM Tris-HCl, 0.07% albumin, 0.01% Tween-20, 2 U/mL glucose-6-phosphate dehydrogenase, 5 μM flavin adenine dinucleotide, 1 μM glucose-6-phosphate, 30 μM nicotinamide adenine dinucleotide phosphate, 0.03% 3-(4,5-dimethyl-2-thiazolyl)-2,5-diphenyltetrazolium bromide (MTT), and 50 μM menadione), stop solution (solution containing 0.3 mM dicoumarol and 5 mM potassium dihydrogen phosphate, pH 7.4) were prepared. After the medium was removed, 50 μL of the cell lysate was added and incubated at 37° C. for 10 minutes, followed by shaking at room temperature for 10 minutes. 200 μL of reaction solution was added thereto, and allowed to stand for 5 minutes at room temperature. 50 μL of the stop solution was added thereto, and absorbance was measured at 610 nm on a SpectraMax PLUS384 (Molecular devices) or POWERSCAN HT (DS Pharma Biomedical). The test results were analyzed in Excel, and the NQO1 activity upon addition of 400 nM of test compound was calculated as a ratio from the base without the compound.
The results of each test compound in this test are shown in the following Table 2 (A: 5<NQO1 activity ratio, B: 3<NQO1 activity ratio 5, C: 1.5<NQO1 activity ratio 3).

Sequence of GST-fused human Keap1 (amino acid residues: 325-642) protein (Q14145 325-624 limits assumed): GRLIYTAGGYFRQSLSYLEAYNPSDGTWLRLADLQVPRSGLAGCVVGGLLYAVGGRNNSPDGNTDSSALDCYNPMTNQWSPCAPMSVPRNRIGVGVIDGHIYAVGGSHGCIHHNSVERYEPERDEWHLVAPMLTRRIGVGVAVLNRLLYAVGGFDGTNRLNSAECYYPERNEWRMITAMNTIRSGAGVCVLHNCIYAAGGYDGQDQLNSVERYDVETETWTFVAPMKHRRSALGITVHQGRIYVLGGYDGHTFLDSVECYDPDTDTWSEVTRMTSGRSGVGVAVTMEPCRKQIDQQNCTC

Row | IC50 [1] [nM] | Compound | fold induction at 0.4 µM [2]
1 | 10 to 30 | CC[C@H]1Cc2ccc(O)nc2CN(Cc2cc([C@H](CC(=O)O)c3ccc4c(nnn4C)c3C)cc3ccsc23)C1 [Example 73, (3S)-3-(1,4-Dimethyl-1H-benzotriazol-5-yl)-3-(7-{[(6S)-6-ethyl-2-hydroxy-5,6,7,9-tetrahydro-8H-pyrido[2,3-c]azepin-8-yl]methyl}-1-benzothiophen-5-yl)propanoic acid] | > 5
2 | 30 to 300 | CC[C@@H]1CN(Cc2cc([C@H](CC(=O)O)c3cc(C)c4c(nnn4C)c3C)cc3ccsc23)Cc2nc(O)ccc2O1 [Example 17, (3S)-3-(7-{[(2R)-2-Ethyl-7-hydroxy-2,3-dihydropyrido[2,3-f][1,4]oxazepin-4(5H)-yl]methyl}-1-benzothiophen-5-yl)-3-(1,4,7-trimethyl-1H-benzotriazol-5-yl)propanoic acid] | > 5
3 | 30 to 300 | CC[C@@H]1CN(Cc2cc([C@@H](CC(=O)O)c3ccc4c(nnn4CC(C)(C)O)c3C)cc3ccsc23)Cc2nc(O)ccc2O1 [Example 19, (3R)-3-(7-{[(2R)-2-Ethyl-7-hydroxy-2,3-dihydropyrido[2,3-f][1,4]oxazepin-4(5H)-yl]methyl}-1-benzothiophen-5-yl)-3-[1-(2-hydroxy-2-methylpropyl)-4-methyl-1H-benzotriazol-5-yl]propanoic acid] | 3 to 5
4 | 300 to 3000 | Cc1c([C@@H](CC(=O)O)c2cc(CN3Cc4nc(O)ccc4O[C@@H](C(F)(F)F)C3)c3sccc3c2)ccc2c1nnn2C [Example 40, (3S)-3-(1,4-Dimethyl-1H-benzotriazol-5-yl)-3-(7-{[(2R)-7-hydroxy-2-(trifluoromethyl)-2,3-dihydropyrido[2,3-f][1,4]oxazepin-4(5H)-yl]methyl}-1-benzothiophen-5-yl)propanoic acid] | 1.5 to 3
5 | 300 to 3000 | Cc1c(C(CC(=O)O)c2cc(CN3Cc4nc(O)ccc4OC4(CC4)[C@H]3C)c3sccc3c2)ccc2c1nnn2C (single isomer, unassigned) [Example 58, (3R*)-3-(1,4-Dimethyl-1H-benzotriazol-5-yl)-3-(7-{[(3′R)-7′-hydroxy-3′-methyl-3′H-spiro[cyclopropane-1,2′-pyrido[2,3-f][1,4]oxazepin]-4′ (5′H)-yl]methyl}-1-benzothiophen-5-yl)propanoic acid] | 1.5 to 3
6 | 10 to 30 | CC[C@@H]1CN(Cc2cc([C@@H](CC(=O)O)c3ccc4c(nnn4CC(F)(F)F)c3C)cc3ccsc23)Cc2nc(O)ccc2O1 (single isomer, unassigned) [Example 28] | 
7 | 300 to 3000 | Cc1c([C@H](CC(=O)O)c2cc(CN3Cc4nc(O)ccc4O[C@@H](C(F)(F)F)C3)c3sccc3c2)ccc2c1nnn2C [Example 39, (3R)-3-(1,4-Dimethyl-1H-benzotriazol-5-yl)-3-(7-{[(2R)-7-hydroxy-2-(trifluoromethyl)-2,3-dihydropyrido[2,3-f][1,4]oxazepin-4(5H)-yl]methyl}-1-benzothiophen-5-yl)propanoic acid] | 1.5 to 3
8 | 10 to 30 | Cc1c([C@H](c2cc(CN3Cc4nc(O)ccc4O[C@H](C4CC4)C3)c3sccc3c2)C(C)(C)C(=O)O)cnc2c1nnn2C [Example 51, (3S)-3-(7-{[(2R)-2-Cyclopropyl-7-hydroxy-2,3-dihydropyrido[2,3-f][1,4]oxazepin-4(5H)-yl]methyl}-1-benzothiophen-5-yl)-3-(3,7-dimethyl-3H-[1,2,3]triazolo[4,5-b]pyridin-6-yl)-2,2-dimethylpropanoic acid] | > 5
9 | ≤ 10 | CC[C@@H]1CN(Cc2cc([C@H](CC(=O)O)c3cc(OC(F)(F)F)c4c(nnn4C)c3C)cc3ccsc23)Cc2nc(O)ccc2O1 [Example 42, (3S)-3-[1,4-Dimethyl-7-(trifluoromethoxy)-1H-benzotriazol-5-yl]-3-(7-{[(2R)-2-ethyl-7-hydroxy-2,3-dihydropyrido[2,3-f][1,4]oxazepin-4(5H)-yl]methyl}-1-benzothiophen-5-yl)propanoic acid] | > 5
10 | 30 to 300 | CC[C@@H]1CN(Cc2cc(C(CC(=O)O)c3ccc4c(nnn4C)c3C)cc3ccsc23)Cc2ncc(O)cc2O1 (single isomer, unassigned) [Example 65, (3R*)-3-(1,4-Dimethyl-1H-benzotriazol-5-yl)-3-(7-{[(2R)-2-ethyl-8-hydroxy-2,3-dihydropyrido[2,3-f][1,4]oxazepin-4(5H)-yl]methyl}-1-benzothiophen-5-yl)propanoic acid] | > 5
11 | 30 to 300 | Cc1c([C@H](CC(=O)O)c2cc(CN3Cc4nc(O)ccc4CC(C4CC4)C3)c3sccc3c2)cnc2c1nnn2C (single isomer, unassigned) [Example 91, (3R)-3-(7-{[(6S*)-6-Cyclopropyl-2-hydroxy-5,6,7,9-tetrahydro-8H-pyrido[2,3-c]azepin-8-yl]methyl}-1-benzothiophen-5-yl)-3-(3,7-dimethyl-3H-[1,2,3]triazolo[4,5-b]pyridin-6-yl)propanoic acid] | 
12 | 30 to 300 | CC[C@@H]1CN(Cc2cc(C(CC(=O)O)c3ccc4c(nnn4C)c3C)cc3ccsc23)Cc2ncc(O)cc2O1 (single isomer, unassigned) [Example 66, (3S*)-3-(1,4-Dimethyl-1H-benzotriazol-5-yl)-3-(7-{[(2R)-2-ethyl-8-hydroxy-2,3-dihydropyrido[2,3-f][1,4]oxazepin-4(5H)-yl]methyl}-1-benzothiophen-5-yl)propanoic acid] | 
13 | 300 to 3000 | CC[C@@H]1CN(Cc2cc([C@H](c3ccc4c(nnn4C)c3C)C(C)(C)C(=O)O)cc3ccsc23)Cc2nc(O)ccc2O1 [Example 12, (3R)-3-(1,4-Dimethyl-1H-benzotriazol-5-yl)-3-(7-{[(2R)-2-ethyl-7-hydroxy-2,3-dihydropyrido[2,3-f][1,4]oxazepin-4(5H)-yl]methyl}-1-benzothiophen-5-yl)-2,2-dimethylpropanoic acid] | 
14 | 30 to 300 | Cc1c(C(CC(=O)O)c2cc(CN3Cc4nc(O)ccc4OC4(CC4)[C@@H]3C)c3sccc3c2)ccc2c1nnn2C (single isomer, unassigned) [Example 61, (3S*)-3-(1,4-Dimethyl-1H-benzotriazol-5-yl)-3-(7-{[(3′S)-7′-hydroxy-3′-methyl-3′H-spiro[cyclopropane-1,2′-pyrido[2,3-f][1,4]oxazepin]-4′ (5′H)-yl]methyl}-1-benzothiophen-5-yl)propanoic acid] | 
15 | 300 to 3000 | Cc1c(C(CC(=O)O)c2cc(CN3Cc4nc(O)ccc4OC4(CC4)[C@H]3C)c3sccc3c2)ccc2c1nnn2C (single isomer, unassigned) [Example 59, (3S*)-3-(1,4-Dimethyl-1H-benzotriazol-5-yl)-3-(7-{[(3′R)-7′-hydroxy-3′-methyl-3′H-spiro[cyclopropane-1,2′-pyrido[2,3-f][1,4]oxazepin]-4′ (5′H)-yl]methyl}-1-benzothiophen-5-yl)propanoic acid] | 
16 | 30 to 300 | Cc1c([C@H](CC(=O)O)c2cc(CN3Cc4nc(O)ccc4CC(C4CC4)C3)c3sccc3c2)ccc2c1nnn2C (single isomer, unassigned) [Example 89, (3R)-3-(7-{[(6R*)-6-Cyclopropyl-2-hydroxy-5,6,7,9-tetrahydro-8H-pyrido[2,3-c]azepin-8-yl]methyl}-1-benzothiophen-5-yl)-3-(1,4-dimethyl-1H-benzotriazol-5-yl)propanoic acid] | 
